Here are results for 47 compounds from US20260306640A1, “TECHNOLOGIES TARGETING CELL STATES” (Auron Therapeutics, Inc., priority 2023, published 2026).

Usually DC50 stands for the concentration giving 50% degradation.

Molecules are shown by their SMILES.

In the experiment the target is KAT2A (Homo sapiens, UniProt Q92830). In words: KAT2A degradation, Western Blot (Jess), MOLM-13 cells. The format is cell-based. The arrangement: degrader, Western blot. Conditions: MOLM-13 cells, KAT2A, 24 h, Western Blot, vs DMSO; read-out: KAT2A MOLM-13 DC50. The essentials: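 MOLM-13 cells in RPMI 1640/20% FBS were treated with compound for 24 h at 37 °C. RIPA lysates (4 μg) were run on a capillary Western (Jess) with anti-KAT2A antibody and chemiluminescent detection. DC50 comes from percent protein reduction versus DMSO control.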
Sequence of KAT2A (Q92830 whole entry): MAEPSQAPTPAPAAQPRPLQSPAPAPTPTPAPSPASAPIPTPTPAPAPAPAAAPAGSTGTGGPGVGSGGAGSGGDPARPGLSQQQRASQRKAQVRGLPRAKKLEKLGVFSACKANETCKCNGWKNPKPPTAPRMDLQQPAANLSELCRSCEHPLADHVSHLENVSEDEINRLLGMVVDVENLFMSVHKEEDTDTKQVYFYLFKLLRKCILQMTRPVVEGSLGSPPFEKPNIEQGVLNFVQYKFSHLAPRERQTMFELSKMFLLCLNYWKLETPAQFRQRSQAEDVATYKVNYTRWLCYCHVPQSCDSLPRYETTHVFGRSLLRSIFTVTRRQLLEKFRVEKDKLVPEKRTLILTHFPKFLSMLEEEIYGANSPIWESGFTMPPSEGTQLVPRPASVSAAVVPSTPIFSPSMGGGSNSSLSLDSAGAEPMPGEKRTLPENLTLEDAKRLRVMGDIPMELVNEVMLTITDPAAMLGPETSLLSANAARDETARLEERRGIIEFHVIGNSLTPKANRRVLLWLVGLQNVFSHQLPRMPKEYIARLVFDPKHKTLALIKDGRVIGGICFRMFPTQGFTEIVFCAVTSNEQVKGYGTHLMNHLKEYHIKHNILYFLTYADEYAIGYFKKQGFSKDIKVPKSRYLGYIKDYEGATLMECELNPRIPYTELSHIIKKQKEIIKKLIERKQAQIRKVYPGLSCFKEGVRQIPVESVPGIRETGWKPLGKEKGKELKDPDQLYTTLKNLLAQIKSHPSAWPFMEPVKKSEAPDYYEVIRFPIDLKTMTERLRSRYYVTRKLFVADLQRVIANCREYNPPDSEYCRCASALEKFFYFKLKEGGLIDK
Turning to `CN1C[C@H](Nc2cnn(C)c(=O)c2Br)C[C@H](c2ccc(C(=O)N(C)c3cccc(Oc4ccc5c(c4)C(=O)N(C4CCC(=O)NC4=O)C5=O)c3)cc2)C1` (some centres unmarked) [Compound 34], the half-maximal degradation concentration (DC50) was in the range of 1 to 30 nM.
For the compound `CN1C[C@H](Nc2cnn(C)c(=O)c2Br)C[C@H](c2ccc(C(=O)N3CCC4(CCN(CC5CCN(c6ccc7c(c6)C(=O)N(C6CCC(=O)NC6=O)C7=O)CC5)C4)C3)cc2)C1` (some centres unmarked) [Compound 118], the DC50 is less than 1 nM.
For `CN1C[C@H](Nc2cnn(C)c(=O)c2Br)C[C@H](c2ccc(C(=O)N3CC(c4ccc5c(c4)CN(C4CCC(=O)NC4=O)C5=O)C3)cc2)C1` (some centres unmarked) [Compound 138], the DC50 is less than 1 nM.
The same measure for `CN1C[C@H](Nc2cnn(C)c(=O)c2Br)C[C@H](c2ccc(CN3CCC4(CC3)CN(c3ccc5c(c3)C(=O)N(C3CCC(=O)NC3=O)C5=O)C4)cc2)C1` (some centres unmarked) [Compound 108]: less than 1 nM.
Turning to `CN1C[C@H](Nc2cnn(C)c(=O)c2Br)C[C@H](c2ccc(C(=O)N3CC4(C3)CN(c3cccc(C5CCC(=O)NC5=O)c3)C4)cc2)C1` (some centres unmarked) [Compound 148], the DC50 lay in the range of 1 to 30 nM.
For the compound `CN1C[C@H](Nc2cnn(C)c(=O)c2Br)C[C@H](c2ccc(C(=O)N3CCN(Cc4ccc5c(c4)CN(C4CCC(=O)NC4=O)C5=O)CC3)cc2)C1` (some centres unmarked) [Compound 71], the DC50 was less than 1 nM.
The same measure for `CN1C[C@H](Nc2cnn(C)c(=O)c2Br)C[C@H](c2ccc(C(=O)N3CCC(c4ccc5c(c4)CN(C4CCC(=O)NC4=O)C5=O)CC3)cc2)C1` (some centres unmarked) [Compound 172]: 1 to 30 nM.
For the compound `CN1C[C@H](Nc2cnn(C)c(=O)c2Br)C[C@H](c2ccc(C(=O)N(C)CCCCC#CCCCOc3cccc4c3C(=O)N(C3CCC(=O)NC3=O)C4=O)cc2)C1` (some centres unmarked) [Compound 8], the DC50 is 1 to 30 nM.
In the case of `CN1C[C@H](Nc2nn(C)c(=O)c3cccnc23)C[C@H](c2ccc(C(=O)N3CCN(Cc4ccc(C(=O)Nc5cccc6c5C(=O)N(C5CCC(=O)NC5=O)C6=O)cc4)CC3)cc2)C1` (some centres unmarked) [Compound 47], the DC50 is more than 30 nM.
`CN1C[C@H](Nc2cnn(C)c(=O)c2Br)C[C@H](c2ccc(C(=O)NCCOCCn3cc(COCCOc4cccc5c4C(=O)N(C4CCC(=O)NC4=O)C5=O)nn3)cc2)C1` (some centres unmarked) [Compound 43]: the 50% degradation concentration (DC50) was more than 30 nM.
The same measure for `CN1C[C@H](Nc2cnn(C)c(=O)c2Br)C[C@H](c2ccc(C(=O)N3CCC(COc4cccc5c4C(=O)N(C4CCC(=O)NC4=O)C5=O)CC3)cc2)C1` (some centres unmarked) [Compound 45]: less than 1 nM; for `CN1C[C@H](Nc2cnn(C)c(=O)c2Br)C[C@H](c2ccc(C(=O)N3CC(Oc4ccc5c(c4)CN(C4CCC(=O)NC4=O)C5=O)C3)cc2)C1` (some centres unmarked) [Compound 93]: less than 1 nM; for `CN1C[C@H](Nc2cnn(C)c(=O)c2Br)C[C@H](c2ccc(C(=O)N3CCC(C#CCOc4ccc5c(c4)C(=O)N(C4CCC(=O)NC4=O)C5=O)CC3)cc2)C1` (some centres unmarked) [Compound 54]: less than 1 nM.
For `CN1C[C@H](Nc2cnn(C)c(=O)c2Br)C[C@H](c2ccc(COc3ccc(C4CCC(=O)NC4=O)cc3)cc2)C1` (some centres unmarked) [Compound 151] the value was 1 to 30 nM; for `CN1C[C@H](Nc2cnn(C)c(=O)c2Br)C[C@H](c2ccc(CN3CCC4(CC3)CN(c3cccc(C5CCC(=O)NC5=O)c3)C4)cc2)C1` (some centres unmarked) [Compound 127], 1 to 30 nM.
For the compound `CN1C[C@H](Nc2cnn(C)c(=O)c2Br)C[C@H](c2ccc(C(=O)N3CCN(c4ccc5c(c4)n(C)c(=O)n5C4CCC(=O)NC4=O)CC3)cc2)C1` (some centres unmarked) [Compound 137], the half-maximal degradation concentration (DC50) was 1 to 30 nM.
Turning to `CN1C[C@H](Nc2cnn(C)c(=O)c2Br)C[C@H](c2ccc(C(=O)N3CCN(c4cccc5c4C(=O)N(C4CCC(=O)NC4=O)C5=O)CC3)cc2)C1` (some centres unmarked) [Compound 27], the DC50 was less than 1 nM.
For `CN1C[C@H](Nc2cnn(C)c(=O)c2Br)C[C@H](c2ccc(C(=O)N3CCN(Cc4cccc(C(=O)Nc5cccc6c5C(=O)N(C5CCC(=O)NC5=O)C6=O)c4)CC3)cc2)C1` (some centres unmarked) [Compound 57], the DC50 lay within 1 to 30 nM.
In the case of `CN1C[C@H](Nc2cnn(C)c(=O)c2Br)C[C@H](c2ccc(CN3CCC(c4ccc5c(c4)CN(C4CCC(=O)NC4=O)C5=O)CC3)cc2)C1` (some centres unmarked) [Compound 66], the DC50 was less than 1 nM.
In the case of `CN1C[C@H](Nc2cnn(C)c(=O)c2Cl)C[C@H](c2ccc(CN3CCN(Cc4ccc5c(c4)CN(C4CCC(=O)NC4=O)C5=O)CC3)cc2)C1` (some centres unmarked) [Compound 75], the DC50 lay in the range of 1 to 30 nM.
Take `CN1C[C@H](Nc2cnn(C)c(=O)c2Cl)C[C@H](c2ccc(CN3CCN(c4ccc(C5CCC(=O)NC5=O)cc4)CC3)cc2)C1` (some centres unmarked) [Compound 104]: the DC50 was in the range of 1 to 30 nM.
`CN1C[C@H](Nc2cnn(C)c(=O)c2Br)C[C@H](c2ccc(C(=O)N3CCN(Cc4ccc(C(=O)Nc5cccc6c5C(=O)N(C5CCC(=O)NC5=O)C6=O)cc4)CC3)cc2)C1` (some centres unmarked) [Compound 6]: the DC50 is less than 1 nM.
The same measure for `CN1C[C@H](Nc2cnn(C)c(=O)c2Br)C[C@H](c2ccc(C(=O)N3CCC(c4cccc(CN5CCC(=O)NC5=O)c4)CC3)cc2)C1` [Compound 140]: more than 30 nM; for `CN1C[C@H](Nc2cnn(C)c(=O)c2Br)C[C@H](c2ccc(C(=O)N3CCC(C#CC(=O)Nc4ccc5c(c4)CN(C4CCC(=O)NC4=O)C5=O)CC3)cc2)C1` (some centres unmarked) [Compound 5]: 1 to 30 nM; for `CN1C[C@H](Nc2cnn(C)c(=O)c2Br)C[C@H](c2ccc(CN3CC4(C3)CN(c3cccc5c3C(=O)N(C3CCC(=O)NC3=O)C5=O)C4)cc2)C1` (some centres unmarked) [Compound 51]: more than 30 nM.
Take `CN1C[C@H](Nc2cnn(C)c(=O)c2Br)C[C@H](c2ccc(CN3CCN(c4ccc(C5CCC(=O)NC5=O)cc4)CC3)cc2)C1` (some centres unmarked) [Compound 69]: the DC50 was less than 1 nM.
Consider `CN1C[C@H](Nc2cnn(C)c(=O)c2Br)C[C@H](c2ccc(C(=O)N3CCN(C4CCN(C5CCC(=O)NC5=O)CC4)CC3)cc2)C1` (some centres unmarked) [Compound 149], for which the DC50 fell in the range of 1 to 30 nM.
Turning to `CN1C[C@H](Nc2cnn(C)c(=O)c2Br)C[C@H](c2ccc(C(=O)N3CC(Oc4ccc5c(c4)C(=O)N(C4CCC(=O)NC4=O)C5=O)C3)cc2)C1` (some centres unmarked) [Compound 30], the DC50 lay in the range of 1 to 30 nM.
The same measure for `CN1C[C@H](Nc2cnn(C)c(=O)c2Br)C[C@H](c2ccc(CNc3ccc4c(c3)C(=O)N(C3CCC(=O)NC3=O)C4=O)cc2)C1` (some centres unmarked) [Compound 106]: less than 1 nM; for `CN1C[C@H](Nc2cnn(C)c(=O)c2Br)C[C@H](c2ccc(COc3cccc4c3C(=O)N(C3CCC(=O)NC3=O)C4=O)cc2)C1` (some centres unmarked) [Compound 38]: 1 to 30 nM.
For the compound `CN1C[C@H](Nc2cnn(C)c(=O)c2Br)C[C@H](c2ccc(CN3CCC(Oc4cccc5c4C(=O)N(C4CCC(=O)NC4=O)C5=O)CC3)cc2)C1` (some centres unmarked) [Compound 36], the DC50 fell in the range of 1 to 30 nM.
`CN1C[C@H](Nc2cnn(C)c(=O)c2Br)C[C@H](c2ccc(CN3CCC4(CC3)CCN(c3cccc(C5CCC(=O)NC5=O)c3)CC4)cc2)C1` (some centres unmarked) [Compound 134]: the DC50 is less than 1 nM.
Regarding `CN1C[C@H](Nc2cnn(C)c(=O)c2Br)C[C@H](c2ccc(C(=O)N3CCC(C(=O)N4CCN(c5cccc6c5C(=O)N(C5CCC(=O)NC5=O)C6=O)CC4)CC3)cc2)C1` (some centres unmarked) [Compound 10], the DC50 fell in the range of 1 to 30 nM.
As to `CN1C[C@H](Nc2cnn(C)c(=O)c2Br)C[C@H](c2ccc(C(=O)N3CCN(CC4CCN(C5CCC(=O)NC5=O)CC4)CC3)cc2)C1` (some centres unmarked) [Compound 177], the DC50 was more than 30 nM.
With `CN1C[C@H](Nc2cnn(C)c(=O)c2Br)C[C@H](c2ccc(CNC3CN(c4ccc(C5CCC(=O)NC5=O)cc4)C3)cc2)C1` (some centres unmarked) [Compound 103], the DC50 is less than 1 nM.
As for `CN1C[C@H](Nc2cnn(C)c(=O)c2Br)C[C@H](c2ccc(C(=O)N(C)c3ccc(Oc4cccc5c4C(=O)N(C4CCC(=O)NC4=O)C5=O)cc3)cc2)C1` (some centres unmarked) [Compound 1], the DC50 fell in the range of 1 to 30 nM.
On to `CN1C[C@H](Nc2cnn(C)c(=O)c2Br)C[C@H](c2ccc(CN3CCC4(CC3)CCN(c3ccc(F)c(C5CCC(=O)NC5=O)c3)CC4)cc2)C1` (some centres unmarked) [Compound 174], for which the DC50 is less than 1 nM.
The same measure for `CN1C[C@H](Nc2cnn(C)c(=O)c2Br)C[C@H](c2ccc(CN3CC4(C3)CN(c3ccc5c(c3)CN(C3CCC(=O)NC3=O)C5=O)C4)cc2)C1` (some centres unmarked) [Compound 37]: less than 1 nM; for `CN1C[C@H](Nc2cnn(C)c(=O)c2Cl)C[C@H](c2ccc(C(=O)N3CCN(Cc4ccc(C(=O)Nc5cccc6c5C(=O)N(C5CCC(=O)NC5=O)C6=O)cc4)CC3)cc2)C1` (some centres unmarked) [Compound 46]: 1 to 30 nM; for `CN1C[C@H](Nc2cnn(C)c(=O)c2Br)C[C@H](c2ccc(C(=O)N3CCN(CC4CCN(c5ccc6c(c5)C(=O)N(C5CCC(=O)NC5=O)C6=O)CC4)CC3)cc2)C1` (some centres unmarked) [Compound 111]: less than 1 nM.
Turning to `CN1C[C@H](Nc2cnn(C)c(=O)c2C2CC2)C[C@H](c2ccc(CN3CCC(c4ccc5c(c4)CN(C4CCC(=O)NC4=O)C5=O)CC3)cc2)C1` (some centres unmarked) [Compound 129], the DC50 was 1 to 30 nM.
For `CN1C[C@H](Nc2cnn(C)c(=O)c2Br)C[C@H](c2ccc(C(=O)NCCCCCCCCCC(=O)Nc3ccc4c(c3)CN(C3CCC(=O)NC3=O)C4=O)cc2)C1` (some centres unmarked) [Compound 3], the DC50 is less than 1 nM.
In the case of `CN1C[C@H](Nc2nn(C)c(=O)n(C)c2=O)C[C@H](c2ccc(C(=O)N3CCN(Cc4ccc(C(=O)Nc5cccc6c5C(=O)N(C5CCC(=O)NC5=O)C6=O)cc4)CC3)cc2)C1` (some centres unmarked) [Compound 56], the half-maximal degradation concentration (DC50) was more than 30 nM.
Take `CN1C[C@H](Nc2cnn(C)c(=O)c2Br)C[C@H](c2ccc(C(=O)N3CC(Oc4ccc(C5CCC(=O)NC5=O)cc4)C3)cc2)C1` (some centres unmarked) [Compound 183]: the half-maximal degradation concentration (DC50) lay in the range of 1 to 30 nM.
For `CN1C[C@H](Nc2cnn(C)c(=O)c2Br)C[C@H](c2ccc(C(=O)N(C)C3CCN(c4cccc5c4C(=O)N(C4CCC(=O)NC4=O)C5=O)CC3)cc2)C1` (some centres unmarked) [Compound 13] the value was 1 to 30 nM.
As to `CN1C[C@H](Nc2cnn(C)c(=O)c2Cl)C[C@H](c2ccc(C(=O)N3CCN(Cc4ccc5c(c4)CN(C4CCC(=O)NC4=O)C5=O)CC3)cc2)C1` (some centres unmarked) [Compound 76], the DC50 lay within 1 to 30 nM.
Turning to `CN1C[C@H](Nc2cnn(C)c(=O)c2Br)C[C@H](c2ccc(C(=O)N3CCN(c4cccc5c4C(=O)N(C4CCC(=O)NC4=O)C5=O)CC3)cc2)C1` (some centres unmarked) [Compound 14], the 50% degradation concentration (DC50) was less than 1 nM.
